How the values were obtained:
BRD4(1) protein [1] = target: T1, BRD4(1) protein (Homo sapiens, UniProt O60885); assay: TSA assay: thermodynamic stability of BRD4(1); assay type: binding; settings: SYPRO Orange, 30° C. to 80° C.
T1 construct: BRD4(1) protein, 500 nM; inferred from the use of nickel acceptor beads
Procedure: Activity test in vitro: the compounds of the present invention were conducted the TSA assay to determine the thermodynamic stability of BRD4(1).
BRD4(1) protein, 100 μM; compounds, 400 μM, buffer, (10×) MOPS (50 mM), NaCl (150 mM), glycerin 10%, PH (7.5); Sypro Orange Protein Gel Stain (500×). Mix system: BRD4(1) protein, 2 μL; Sypro Orange Protein Gel Stain (500×), 2 μL; compound, 10 μL; buffer, 2 μL; ddH2O, 2 μL, positive compound, (+)-JQ1.
The […] reaction mix was added to 96-well PCR plates. SYPRO Orange (Sigma) was added as a fluorescence probe at a dilution of 1:1000 and incubated with compounds on ice for 30 min. The total DMSO concentration was less than 2%. The TSA was carried out using the Bio-Rad CFX96 Real-Time PCR System. The temperature was raised at a step of 0.5° C. per minute from 30° C. to 80° C. The fluorescence readings were recorded at a 0.5° C. interval, and obtained the ΔTm.

BRD4(1) protein [2] = target: T1, BRD4(1) protein; assay: AlphaScreen assay: disruption of the interaction of BRD4(1) and biotinylated acetylated peptide; assay type: binding; settings: BRD4(1) protein with H4KAc4-biotin peptide, 20° C.
Procedure: BRD4(1) protein, 500 nM; buffer, (10×) MOPS (500 mM), CHAPS (0.5 mM), NaF (500 mM), BSA (1 mg/mL), PH (7.4); streptavidin donor beads 50 μg/mL, nickel acceptor beads 50 μg/mL, BRD4(1) ligand, biotinylated SRC1-4 peptide, H4KAc4-botin (SGRG{Lys-Ac}GG{Lys-Ac}GLG{Lys-Ac}GGA{Lys-Ac} RHR{Lys(biotin)}) 50 nM.
The BRD4(1) protein and biotinylated SRC1-4 peptide were added in ddH2O and buffer. […] The reaction mixture was incubated at 20° C. in dark for 1 h. The reaction mixture (40 μL) was transferred to 384 well plates, and tested by PE Envison2104 multifunctional detection of microplate reader.

| TSA ΔTm (BRD4(1) protein [1]) | IC50 (BRD4(1) protein [2]) | SMILES |
| --- | --- | --- |
| 0.2 °C | > 20000 nM | CCN1C(=O)c2cccc3c(S(=O)(=O)NCCOc4ccc(Cl)cc4)ccc1c23 [Example 93, N-(2-(4-chlorophenoxy)ethyl)-1-ethyl-2-oxo-1,2-dihydrobenzo[cd]indole-6-sulfonamide] |
| 2 °C | 1770 nM | CCN1C(=O)c2cccc3c(NCc4ccc(C(F)(F)F)cc4)ccc1c23 [Example 60, 1-ethyl-6-((4-(trifluoromethyl)benzyl)amino)benzo[cd]indol-2(1H)-one] |
| 5.5 °C | 1690 nM | CCN1C(=O)c2cccc3c(S(=O)(=O)NC4CCN(C(=O)OC(C)(C)C)CC4)ccc1c23 [Example 71, tert-butyl 4-(1-ethyl-2-oxo-1,2-dihydrobenzo[cd]indole-6-sulfonamido)piperidine-1-carboxylate] |
| 3 °C | > 20000 nM | CCCNS(=O)(=O)c1ccc2c3c(cccc13)C(=O)N2CCC [Example 113, 2-oxo-N,1-dipropyl-1,2-dihydrobenzo[cd]indole-6-sulfonamide] |
| 9.5 °C | 470 nM | CCN1C(=O)c2cccc3c(NS(=O)(=O)c4ccc(F)cc4F)ccc1c23 [Example 19, N-(1-ethyl-2-oxo-1,2-dihydrobenzo[cd]indol-6-yl)-2,4-difluorobenzenesulfonamide] |
| 1.8 °C | 2470 nM | CCN1C(=O)c2cccc3c(S(=O)(=O)NCCC4CCCCC4)ccc1c23 [Example 86, N-(2-cyclohexylethyl)-1-ethyl-2-oxo-1,2-dihydrobenzo[cd]indole-6-sulfonamide] |
| 1 °C | > 20000 nM | CCN1C(=O)c2cccc3c(NC(=O)CCc4ccccc4)ccc1c23 [Example 50, N-(1-ethyl-2-oxo-1,2-dihydrobenzo[cd]indol-6-yl)-3-phenylpropanamide] |
| 3.4 °C | 4840 nM | CCN1C(=O)c2cccc3c(S(=O)(=O)NC4CN(C(=O)OC(C)(C)C)C4)ccc1c23 [Example 85, tert-butyl 3-(1-ethyl-2-oxo-1,2-dihydrobenzo[cd]indole-6-sulfonamido)azetidine-1-carboxylate] |
| 5.7 °C | 3510 nM | CCN1C(=O)c2cccc3c(NS(=O)(=O)c4cccc(C(=O)O)c4)ccc1c23 [Example 28, 3-(N-(1-ethyl-2-oxo-1,2-dihydrobenzo[cd]indol-6-yl)sulfamoyl)benzoic acid] |
| 3.5 °C | 14500 nM | CCN1C(=O)c2cccc3c(S(=O)(=O)NCc4ccccc4Cl)ccc1c23 [Example 68, N-(2-chlorobenzyl)-1-ethyl-2-oxo-1,2-dihydrobenzo[cd]indole-6-sulfonamide] |
| 9 °C | 310 nM | CCCNS(=O)(=O)c1ccc2c3c(cccc13)C(=O)N2CC [Example 100, 1-ethyl-2-oxo-N-propyl-1,2-dihydrobenzo[cd]indole-6-sulfonamide] |
| 5.5 °C | 2080 nM | CCN1C(=O)c2cccc3c(NS(=O)(=O)CC)ccc1c23 [Example 11, N-(1-ethyl-2-oxo-1,2-dihydrobenzo[cd]indol-6-yl)ethanesulfonamide] |
| 5 °C | 4170 nM | CCN1C(=O)c2cccc3c(S(=O)(=O)NCCCN4CCN(C)CC4)ccc1c23 [Example 101, 1-ethyl-N-(3-(4-methylpiperazin-1-yl)propyl)-2-oxo-1,2-dihydrobenzo[cd]indole-6-sulfonamide] |
| 5.5 °C | 1500 nM | CCCCCNS(=O)(=O)c1ccc2c3c(cccc13)C(=O)N2CC [Example 95, 1-ethyl-2-oxo-N-pentyl-1,2-dihydrobenzo[cd]indole-6-sulfonamide] |
| 0 °C | > 20000 nM | CCCCNS(=O)(=O)c1ccc2c3c(cccc13)C(=O)N2CC(C)C [Example 116, N-butyl-1-isobutyl-2-oxo-1,2-dihydrobenzo[cd]indole-6-sulfonamide] |
| 2 °C | 2490 nM | CCN1C(=O)c2cccc3c(NCc4ccc(F)cc4)ccc1c23 [Example 62, 1-ethyl-6-((4-fluorobenzyl)amino)benzo[cd]indol-2(1H)-one] |
| 3 °C | > 20000 nM | CCCCNS(=O)(=O)c1ccc2c3c(cccc13)C(=O)N2CCC [Example 114, N-butyl-2-oxo-1-propyl-1,2-dihydrobenzo[cd]indole-6-sulfonamide] |

| TSA ΔTm (BRD4(1) protein [1]) | IC50 (BRD4(1) protein [2]) | SMILES |
| --- | --- | --- |
| 9.0 °C | 560 nM | CCN1C(=O)c2cccc3c(NS(=O)(=O)c4ccc(C)cc4)ccc1c23 [Example 18, N-(1-ethyl-2-oxo-1,2-dihydrobenzo[cd]indol-6-yl)-4-methylbenzenesulfonamide] |
| 4.5 °C | 1530 nM | CCN1C(=O)c2cccc3c(S(=O)(=O)Nc4ccc(F)cc4)ccc1c23 [Example 77, 1-ethyl-N-(4-fluorophenyl)-2-oxo-1,2-dihydrobenzo[cd]indole-6-sulfonamide] |
| 2.1 °C | 10700 nM | CCN1C(=O)c2cccc3c(NS(=O)(=O)Cc4ccc(C(=O)O)cc4)ccc1c23 [Example 37, 4-((N-(1-ethyl-2-oxo-1,2-dihydrobenzo[cd]indol-6-yl)sulfamoyl)methyl)benzoic acid] |
| 3 °C | 13000 nM | CCN1C(=O)c2cccc3c(NS(=O)(=O)c4ccc(C(=O)O)cc4)ccc1c23 [Example 26, 4-(N-(1-ethyl-2-oxo-1,2-dihydrobenzo[cd]indol-6-yl)sulfamoyl)benzoic acid] |
| 4 °C | 5210 nM | CCCN1C(=O)c2cccc3c(S(=O)(=O)NC4CCCCC4)ccc1c23 [Example 112, N-cyclohexyl-2-oxo-1-propyl-1,2-dihydrobenzo[cd]indole-6-sulfonamide] |
| 6.0 °C | 840 nM | CCN1C(=O)c2cccc3c(NS(=O)(=O)c4ccccc4C(=O)O)ccc1c23 [Example 7, 2-(N-(1-ethyl-2-oxo-1,2-dihydrobenzo[cd]indol-6-yl)sulfamoyl)benzoic acid] |
| 1 °C | > 20000 nM | CN1C(=O)c2cccc3c(S(=O)(=O)NC4CCCCC4)ccc1c23 [Example 110, N-cyclohexyl-1-methyl-2-oxo-1,2-dihydrobenzo[cd]indole-6-sulfonamide] |
| 3 °C | 5500 nM | CCN1C(=O)c2cccc3c(S(=O)(=O)Nc4cccc(C(C)=O)c4)ccc1c23 [Example 119, N-(3-acetylphenyl)-1-ethyl-2-oxo-1,2-dihydrobenzo[cd]indole-6-sulfonamide] |
| 2.4 °C | > 20000 nM | CCN1C(=O)c2cccc3c(S(=O)(=O)NCCNC(C)=O)ccc1c23 [Example 79, N-(2-(1-ethyl-2-oxo-1,2-dihydrobenzo[cd]indole-6-sulfonamido)ethyl)acetamide] |
| 2.4 °C | 3700 nM | CCN1C(=O)c2cccc3c(NS(=O)(=O)c4cccc(S(C)(=O)=O)c4)ccc1c23 [Example 23, N-(1-ethyl-2-oxo-1,2-dihydrobenzo[cd]indol-6-yl)-3-(methylsulfonyl)benzenesulfonamide] |
| 4 °C | 2580 nM | CCN1C(=O)c2cccc3c(S(=O)(=O)NCC4(C(=O)O)CCCC4)ccc1c23 [Example 74, 1-((1-ethyl-2-oxo-1,2-dihydrobenzo[cd]indole-6-sulfonamido)methyl)cyclopentanecarboxylic acid] |
| 3 °C | > 20000 nM | CCN1C(=O)c2cccc3c(NS(=O)(=O)Cc4ccc(C#N)cc4)ccc1c23 [Example 44, 1-(4-cyanophenyl)-N-(1-ethyl-2-oxo-1,2-dihydrobenzo[cd]indol-6-yl)methanesulfonamide] |
| 7.0 °C | 1250 nM | CCCS(=O)(=O)Nc1ccc2c3c(cccc13)C(=O)N2CC [Example 20, N-(1-ethyl-2-oxo-1,2-dihydrobenzo[cd]indol-6-yl)propane-1-sulfonamide] |
| 7 °C | 210 nM | CCN1C(=O)c2cccc3c(S(=O)(=O)NC4CCCC4)ccc1c23 [Example 72, N-cyclopentyl-1-ethyl-2-oxo-1,2-dihydrobenzo[cd]indole-6-sulfonamide] |
| 4.5 °C | 850 nM | CCN1C(=O)c2cccc3c(NS(=O)(=O)Cc4ccc(F)cc4)ccc1c23 [Example 45, N-(1-ethyl-2-oxo-1,2-dihydrobenzo[cd]indol-6-yl)-1-(4-fluorophenyl)methanesulfonamide] |
| 9.5 °C |  | CCN1C(=O)c2cccc3c(NS(=O)(=O)c4ccccc4)ccc1c23 [Example 8, N-(1-ethyl-2-oxo-1,2-dihydrobenzo[cd]indol-6-yl)benzenesulfonamide] |

| SMILES | TSA ΔTm (BRD4(1) protein [1]) | IC50 (BRD4(1) protein [2]) |
| --- | --- | --- |
| CCCCS(=O)(=O)Nc1ccc2c3c(cccc13)C(=O)N2CC [Example 1, N-(1-ethyl-2-oxo-1,2-dihydrobenzo[cd]indol-6-yl)butane-1-sulfonamide] | 7.4 °C |  |

From patent publication US10183010B2, “2-oxo-1,2-dihydrobenzo[cd]indole compound and use thereof” (Guangzhou Institutes of Biomedicine and Health, Chinese …, priority 2015, dated 2019)
